Reference: patent US20070270471A1, “Compounds Which Potentiate Glutamate Receptor and Uses Thereof in Medicine” (GLAXO GROUP LIMITED, priority 2004, published 2007)

Target: T1, human GluR2 flip (unedited) AMPA receptor subunit (Homo sapiens, UniProt P42262)
T1 construct: expressed in transfected cells; host or cells: HEK 293 cells, stably expressing or transiently transfected
Experiment: Calcium influx fluorescence assay (FLUO4, FLIPR)
Assay type: cell-based
Conditions: HEK 293 cells expressing human GluR2 flip (unedited); potentiation of response to 100 μM glutamate; peak fluorescence
Experimental: The ability of the compounds of the invention to potentiate glutamate receptor-mediated response were determined a) by using fluorescent calcium-indicator dyes such as FLUO4 and additionally for some compounds, b) by measuring glutamate-evoked current recorded from human GluR2 flip unedited HEK293 cells.
a) Calcium Influx Fluorescence Assay
384 well plates were prepared containing confluent monolayer of HEK 293 cells either stably expressing or transiently transfected with human GluR2 flip (unedited) AMPA receptor subunit. These cells form functional homotetrameric AMPA receptors. […]
The cell plate was then transferred into a fluorescence imaging plate based reader [such as the FLIPR384 (Molecular Devices)]. A baseline fluorescence reading was taken over a 10 to 240 second period, and then 10 μL from each plate containing a compound of the invention made up in standard buffer solution (in a concentration range from 100 μM to 10 μM) was added (to give a final concentration in the range 30 μM to 3 μM). The fluorescence was read over 5 minute period. […] The fluorescence was then read over a 4 minute period. The activities of the compounds of the invention and reference compounds were determined by measuring peak fluorescence after the last addition. The activity was also expressed relative to the fluorescence increase induced by cyclothiazide at their maximum response (i.e. greater than 30 μM).

T1 sequence (P42262 25-883 isoform P42262-2 limits assumed): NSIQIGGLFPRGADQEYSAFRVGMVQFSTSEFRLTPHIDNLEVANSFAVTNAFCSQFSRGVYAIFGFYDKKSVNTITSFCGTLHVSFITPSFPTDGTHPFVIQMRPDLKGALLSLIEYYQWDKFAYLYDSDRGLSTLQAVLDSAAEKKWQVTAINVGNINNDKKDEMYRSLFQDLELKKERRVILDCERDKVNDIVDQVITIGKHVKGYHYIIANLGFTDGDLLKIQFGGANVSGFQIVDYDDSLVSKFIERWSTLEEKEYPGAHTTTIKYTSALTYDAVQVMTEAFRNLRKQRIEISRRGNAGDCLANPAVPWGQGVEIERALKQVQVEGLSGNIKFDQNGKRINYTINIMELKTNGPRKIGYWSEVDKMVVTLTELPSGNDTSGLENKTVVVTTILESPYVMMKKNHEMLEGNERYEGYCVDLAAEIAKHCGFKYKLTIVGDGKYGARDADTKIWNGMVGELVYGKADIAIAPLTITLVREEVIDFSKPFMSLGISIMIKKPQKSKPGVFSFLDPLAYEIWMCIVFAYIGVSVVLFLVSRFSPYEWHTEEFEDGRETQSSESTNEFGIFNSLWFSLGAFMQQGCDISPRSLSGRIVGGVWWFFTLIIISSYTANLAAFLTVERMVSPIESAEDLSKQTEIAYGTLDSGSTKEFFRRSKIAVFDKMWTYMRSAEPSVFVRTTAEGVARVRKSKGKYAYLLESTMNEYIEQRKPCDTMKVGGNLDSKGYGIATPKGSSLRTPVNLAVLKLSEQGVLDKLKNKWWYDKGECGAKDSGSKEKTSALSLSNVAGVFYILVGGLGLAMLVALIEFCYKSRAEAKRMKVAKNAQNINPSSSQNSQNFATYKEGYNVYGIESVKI

SMILES: CC(C)S(=O)(=O)N[C@@H]1CN(C)C[C@H]1c1ccc(-c2cccc(N(C)S(C)(=O)=O)c2)cc1 (relative stereo) [Example 19, N-(trans-1-methyl-4-{3′-[methyl(methylsulfonyl)amino]-4-biphenylyl}-3-pyrrolidinyl)-2-propanesulfonamide]
- EC50: 1580 nM
